Reference: US20250057808A1, “COMPOSITION COMPRISING BETA LACTAM FOR TREATING ALCOHOL DEPENDENCE AND ALCOHOL ASSOCIATED DISEASES OR CONDITIONS” (Temple University of the Commonwealth System of Higher …, priority 2023, published 2025)
Entries after “also recorded” stand apart in the source; their conditions may differ.

Tests used:
[1] = test system: TNF-α; experiment: Western blot TNF-α in subregions of mPFC and NAc; format: in vivo, Male P rats
Method: All P rats were euthanized by CO2 inhalation and decapitated with a guillotine 24 hours after the final i.p. injection was administered on Day 6 of Week 6. Brains were removed and immediately frozen on dry ice and stored at −80° C. The mPFC subregions (infralimbic cortex and prelimbic cortex) and NAc subregions (core and shell) were dissected using a cryostat machine kept at −20° C. Surgical blades were used to dissect all brain regions following visualized landmarks using the stereotaxic coordinates provided by Paxinos and colleague's rat brain stereotactic atlas. All brain regions were stored in −80° C. Western Blot analyses.
Western blot was performed to determine the expression of BDNF, TNF-α, RAGE, HMGβ-1, and β-tubulin in the subregions of mPFC and NAc as preformed in previous studies.
Brain samples were lysed with a lysing buffer containing protease inhibitors. The amount of protein in each sample was quantified using a detergent compatible protein assay (Bio-Rad, Hercules, CA, USA). Polyacrylamide gels (10%) were loaded with the lysate mixture, and proteins were separated using gel electrophoresis for 1 hour. Proteins were then transferred from the gels onto Polyvinylidene difluoride (PVDF) membranes (BioRad). After transfer, membranes were incubated for 30 minutes in a mixture of nonfat milk in 1×Tris-buffered saline with Tween-20 (TBST) at room temperature. Membranes were then incubated at 4° C. for 24 hours with primary antibodies: anti-rabbit BDNF (1:1000, Abeam, #ab108319), anti-rabbit TNF-α (1:500, Abeam, #ab9739), anti-rabbit HMGβ-1 (1:500, Abeam, #ab18256), and anti-rabbit RAGE (1:1000, Abeam, #ab37407). Anti-mouse-β-tubulin (1:1000, Cell Signaling Technology, #D71G9) was used as a loading control antibody. After incubating for 24 hours, secondary antibody such as donkey anti-rabbit (1:4000, Invitrogen, #31458) or anti-mouse (1:4000, Cell Signaling, #7076S) was added to the membrane for 1 hour at room temperature. The membranes were then washed with 1×TBST three times for 5 minutes each and then dried. Membranes were then incubated in chemiluminescent reagents (Super Signal West Pico, Pierce Inc.) for 2 minutes. Blot images were developed using ChemiDoc. Imaging System and ImageJ software version 1.53a were used to quantify and analyze the expression of BDNF, TNF-α, RAGE, HMGβ-1, and β-tubulin.
The data for the water/saline control group were expressed as 100% based on the values corresponding to the ethanol/saline and ethanol/MC-100093 groups for each set of blotting. Thus, the expression of selected proteins for each group (ethanol/saline group or ethanol/MC-100093 group) was calculated relative to the water/saline control group being set to 100%.
Statistical analyses were performed using GraphPad Prism Version 10. Two-way repeated measures ANOVA followed by Bonferroni post-hoc tests were used to compare water and ethanol intake, and body weight, amongst water group, ethanol/saline group and ethanol/MC-100093 group. A one-way ANOVA test was performed to compare the expression of the studied proteins in selected brain regions in water/saline, ethanol/saline and ethanol/MC-100093 groups. Statistical significance was determined by a p-value of or less than 0.05.

[2] = test system: mGluR1; experiment: Western blot mGluR1 expression in NAc-core and NAc-shell; format: in vivo, P rats; conditions: MC-100093 50 mg/kg or ceftriaxone 200 mg/kg i.p. 5 days; among all groups
Method: We used micro-punch procedure to dissect the subregions of the NAc such as NAc-core and NAc-shell as well as the subregions of prefrontal cortex such as infralimbic (IL) and prelimbic (PL) from the brain on day 6 after the last injection day. P rats were removed from the cage and rapidly euthanized by CO2 inhalation followed by rapid decapitation with a guillotine. Brains were isolated and immediately frozen on dry ice and stored at −80° C. The stereotaxic coordinates provided by Paxinos and colleague's rat brain stereotactic atlas was used to isolate NAc-core and NAc-shell using a cryostat apparatus (−20° C.), which then kept at −80° C. for later western blot analyses.
Western Blot assay was performed to measure changes in the expression of GLT-1, xCT, mGluR1, mGluR5, PPAR-α, PPARγ, GAPDH and β-tubulin in the NAc-core and NAc-shell as described in previous publications. A lysis buffer containing protease and phosphatase inhibitors was used to generate a homogenate of liver, Nac-core, and Nac-shell samples. The amount of protein was quantified using a detergent compatible protein assay (Bio-Rad, Hercules, CA, USA) for each sample. Samples were mixed with laemmli dye and loaded with equal amounts on polyacrylamide gels (10%), which separated the proteins using electrophoresis. After that, polyvinylidene difluoride (PVDF) membranes were used to transfer the proteins electrophoretically from the gels. Membranes were incubated in 5% free-fat milk in Tris-buffered saline with Tween-20 (TBST) for 30-60 minutes at room temperature. Membranes were then incubated with appropriate primary antibodies overnight at 4° C.: rabbit anti-GLT-1 (1:5000, Abcam, ab41621), rabbit anti-xCT (1:2000, Abcam, ab175186), rabbit anti-mGluR1 (1:1000, Abcam, ab82211), rabbit anti-mGluR5 (1:1000, Abcam, ab76316), rabbit anti-PPAR-α (1:1000, Abcam, ab24509), and rabbit anti-PPARγ (1:1000, Abcam, ab209350). Mouse anti-β-tubulin (1:1000; BioLegend) was used as a loading control antibody for the brain samples and rabbit anti-GAPDH (1:5000; cell signaling) was used as a loading control antibody for the liver samples. Membranes were washed five times on the next day with TBST followed by incubation with appropriate secondary antibody (1:5000) for 90 minutes at room temperature. Chemiluminescent reagents (Super Signal West Pico, Pierce Inc.) were used to detect the proteins using a GeneSys imaging system to develop the digitized blot images. Water-control group data were represented as 100% and all other values were expressed relative to control group to detect changes in the expression of the protein of interest in the brain and liver samples.
All statistical analyses were conducted with Graphpad Prism software, with p-values of 0.05 or less being statistically significant. […]

[3] = 100 mg/kg i.p., compared to ethanol/saline group

C[C@@H](O)[C@H]1C(=O)N[C@@H]1[C@@H](C)C(=O)N1CCN(C)CC1 [MC-100093]
TNF-α expression in the IL [1, 3]: decreased significantly TNF-α expression | TNF-α expression in the NAc core [1, 3]: decreased significantly TNF-α expression | TNF-α expression in the NAc shell [1, 3]: decreased TNF-α expression | TNF-α expression in the PL [1, 3]: significantly decreased the expression of TNF-α | TNF-α expression in IL, PL, NAc core and NAc shell (summary) ([1]; post-treatment with MC-100093 100 mg/kg i.p., 100 mg/kg): normalized TNF-α expression in all these brain regions; also recorded: attenuated ethanol-induced upregulation of pro-inflammatory cytokines such as TNF-a and HMGB1 | Protein expression of mGluR1 in the NAc-core [2]: non-significant difference; also recorded: no significant difference | Protein expression of mGluR1 in the NAc-shell [2]: non-significant differences; also recorded: no significant difference
